Data on two molecules can be found in patent US20250057951A1, “DISCERNIBLE CELL SURFACE PROTEIN VARIANTS OF CD117 FOR USE IN CELL THERAPY” (UNIVERSITÄT BASEL, priority 2021, published 2025).

Assay [1] concerns TF-1 cells. In words: SCF-dependent phosphorylation of CD117 variants in TF-1 cells (Tyr719 ELISA). The class given is cell-based, human. Conditions: 1-20 ng/ml SCF for 5 minutes. How it is done: TF-1 cells (wild type, knock out, and variants E73K, D121K and S123K of CD117) were seeded at a concentration of 1 million cells/ml in 2 ml of Medium (RPMI1640 supplemented with GlutaMAX+10% heat inactivated FBS) in a 6-well plate. Cells were treated with 1-20 ng/ml recombinant human SCF (1 mg/ml PeproGMP Recombinant Human SCF) for 5 minutes, before cell collection. Cells were washed with ice-cold PBS, before resuspending cells in 500 μL Lysis Buffer (Lysis buffer from Signaling containing Protease Inhibitor and Phosphatase Inhibitor). Cells were flash frozen in liquid nitrogen and thawed at 37° C. twice, before freezing them at −80° C. until further usage. Undiluted samples were thawed and processed according to the manufacturers protocol for the PathScan Phospho-c-Kit (Tyr719) Sandwich ELISA Kit (Cell Signaling). Absorbance (OD_450 nm) was assessed using the Envision (Perkin Elmer).

In assay [2] the target is antibody Refmab #1. In words: Octet titration, steady state KD of CD117 D1-2-3 variants to Refmab #1. The class given is binding. How it is done: To further characterize binding of Refmab #1 to CD117 D1-2-3 variants E73K, E73L, E73R, E73Y, D121H, D121K, S123K and S123F, the analytes were titrated at 7 different concentrations (from 2000 nM to 5 nM). Antibody Refmab #1 was captured by AHC biosensors for 300 s at 0.5 to 1 μg/mL. Association and dissociation to Refmab #1 was extended to 600 s and 1000 s, respectively. Steady state analysis was performed.
For orientation: BLI is a label-free optical method that tracks binding on a fibre tip over time.

Assay [3] has as its system CD117+ myeloid cells. In words: Depletion experiment in NSG mice with E73K gene-edited HSPCs. Conditions: in the presence of isotype control antibody. The class given is in vivo. How it is done:
In another experiment, NSG mice (Jackson Laboratories) were sub-lethally irradiated one day before injection with 1 Mio gene-edited HSPCs carrying a E73K variant of CD117. 8, 10, 12 and 14 days after cell injection mice received 25 mg/kg antibody Refmab #1-Bert or 25 mg/kg isotope control antibody i.v. per dose. 16 weeks later the mice were euthanized, and blood, spleen and bone marrow were analyzed by FACS.
CD117+ myeloid cells were identified by FACS as live/hCD45+/CD33+/CD117+. […] Clone 104D2 was used as an expression control. Cells were classified as not edited (104D2+ and SR-1+) or E73K edited (104D2+ but SR-1−) based on double staining with anti-CD117 clone SR-1 and anti-CD117 clone 104D2.

Assay [4] concerns antibody Refmab #1. In words: Octet screen: binding of CD117 D1-2-3 variants to captured Refmab #1. Conditions: nm shift at end of association, top analyte concentration (500 nM). Put shortly: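 Refmab #1 captured on anti-human Fc biosensors; human CD117 D1-2-3 wt or variants flowed as analyte at 500, 50 and 5 nM, 25° C., 300 s association/900 s dissociation, buffer-referenced. Binding level at top concentration, end of association, expressed as percent of wild type; 1:1 fits where possible.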

Assay [5] relates to Refmab #1. In words: Refmab #1 titration on engineered TF-1 cells (flow cytometry). Conditions: 5-0.00015 μg/mL antibody; 4° C. The class given is binding. The method, then: Binding of Refmab #1 was assessed in a flow cytometry assay. TF-1 cells were seeded at a cell concentration of 1,000,000 cells/ml in FACS Buffer (PBS+2% FCS+1 mM EDTA). After a Fc blocking using 1:20 diluted TruStain (BioLegend, #422302) in FACS buffer for 15 minutes at 4° C., cells were washed twice with FACS buffer. Subsequently, a SR-1 titration was added to the cells using 5-0.00015 μg/mL antibody for 30 minutes at 4° C. on a plate shaker. Cells were washed twice with FACS buffer and a secondary labelled antibody (IgG (H+L) Cross-Adsorbed Goat anti-Human, Alexa Fluor® 488, Invitrogen, A11013) was added to the cells for 30 minutes at 4° C. on a plate shaker. Cells were washed twice with FACS buffer, before adding 1:100 diluted solution of 7AAD staining (cell viability) in FACS buffer for a couple of minutes and analyzing the cells using the Novocyte Quanteon (Agilent).
(In general: Flow cytometry measures light scatter and fluorescence of single cells or particles in a stream.)

Assay [6] has as its system TF-1 cells. In words: SCF-dependent proliferation, SCF titration on TF-1 cells with CD117 variants (CellTiter-Glo). The class given is cell-based, human. Conditions: titration of SCF; 3 days; TF-1 cells with the CD117 variant. Summed up: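 TF-1 cells expressing wildtype or variant CD117 seeded at 150 000 cells/ml in RPMI+GlutaMax+10% FCS and titrated with SCF. Viability read by CellTiter-Glo 2.0 luminescence after 3 days; EC50 determined from two experiments, each in triplicate.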
On the technique in general: ATP-based viability assays read luminescence as a measure of living cells.

Assay [7] concerns TF-1 cells. In words: SCF-dependent proliferation of TF-1 cells with CD117 knock-in (CellTiter-Glo). The class given is cell-based, human. Conditions: 100 ng/ml SCF; 3 days; knock-in TF-1 cells. The method, then:
(§1) SCF-dependent proliferation is another function of CD117. SCF-dependent proliferation was measured as follows: TF-1 cells were seeded at a cell concentration of 150 000 cells/ml in sterile, white cell culture treated plates in RPMI Media+10% FCS. Cells were treated with 100 ng/ml of SCF and a titration of various CD117 antibodies or an isotype control antibody at different concentrations. After 3 days of incubation a CellTiter-Glo 2.0 assay (Promega) was performed and luminescence was read in a luminometer (e.g. Envision or Phera Star plate readers).
(§2) CD117 wild-type TF-1 cells were compared to TF1 cells with a E73K knock in. […] Both KI1 and KI2 were obtained upon sorting the edited TF1 cells using the SONY MA900, removing any wild-type and knock out cells from the final subsets, thus yielding high purity of knock in.

In assay [8] the test system is TF-1 cells with knock-ins of CD117 variants. In words: Inhibition of SCF-dependent proliferation, TF-1 cells with CD117 variant knock-in. The class given is cell-based, human. Conditions: 100 ng/ml SCF; increasing concentrations; 3 days; E73K; all variants tested; listed as RefMab #1. How it is done: as §1, §2
(§3) Next, proliferation of the variants was tested with increasing concentrations of RefMab #1 at a constant concentration of SCF (100 ng/ml). TF-1 cells were seeded at a cell concentration of 150 000 cells/ml in sterile, white cell culture treated plates with transparent bottom in RPMI+GlutaMax+10% FCS and a fix concentration of 100 ng/ml SCF in the media, Cells were treated with different concentrations of RefMab #1. After 3 days of incubation a CellTiter-Glo 2,0 assay (Promega) was performed, luminescence was read in a luminometer (Envision plate reader).

Assay [9] deals with variants of CD117. In words: Blocking of SCF-induced CD117 phosphorylation (Tyr719 ELISA), TF-1 cells with CD117 variants. The class given is cell-based, human. Conditions: 0.5 ug/mL antibody or 500 nM avapritinib; 100 ng/ml SCF 5 minutes. The method, then:
(§4) SCF-dependent phosphorylation is another function of CD117. SCF-dependent phosphorylation was measured using TF-1 cells expressing CD117 (as shown in previous experiments). TF-1 cells were seeded at a concentration of 1 million cells/ml in 1 ml of Medium (RPMI1640 supplemented with GlutaMAX+10% heat inactivated FBS) in a 6-well plate. Cells were treated with 0.5 ug/mL antibody or 500 nM avapratinib. Cells were then treated with 100 ng/ml recombinant human SCF (1 mg/ml PeproGMP® Recombinant Human SCF) for 5 minutes, before cell collection. Cells were washed with ice-cold PBS, before resuspending cells in 250 μL Lysis Buffer (Lysis buffer from Signaling containing Protease Inhibitor and Phosphatase Inhibitor). Cells were flash frozen in liquid nitrogen and thawed at 37° C. twice, before freezing them at −80° C. until further usage. Undiluted samples were thawed and processed according to the manufacturers protocol for the PathScan® Phospho-c-Kit (Tyr719) Sandwich ELISA Kit (Cell Signaling). Absorbance (OD_450 nm) was assessed using the Envision (Perkin Elmer).
(§5) TF-1 cells (wild type, and variants E73K, E73Y, D121K, S123F and S123K of CD117) were seeded at a concentration of 1 million cells/mL in 2 ml of Medium (RPMI1640 supplemented with GlutaMAX+10% heat inactivated FBS) in a 6-well plate. Cells were pre-treated with 0.5 μg/ml of antibodies Refmab #1-Ernie or Refmab #1-Bert for 30 minutes, before adding 100 ng/ml recombinant human SCF (1 mg/mL PeproGMP® Recombinant Human SCF) for 5 minutes. Cells were collected, washed once with ice-cold PBS and resuspended in 500 μL Lysis Buffer (Lysis buffer from Signaling containing Protease Inhibitor and Phosphatase Inhibitor). Cells were then flash frozen in liquid nitrogen and thawed at 37° C. twice, before freezing them at −80° C. until further usage. Undiluted samples were thawed and processed according to the manufacturers protocol for the PathScan Phospho-c-Kit (Tyr719) Sandwich ELISA Kit (Cell Signaling) or the Human c-Kit (CD117) ELISA Kit (Abcam). Absorbance (OD_450 nm) was assessed using the Envision (Perkin Elmer).

For assay [10], the system named is HSPC's. In words: Inhibition of SCF-dependent proliferation, HSPCs. The class given is cell-based, human. How it is done: For human CD34+ HSCs (different donors) cells are seeded in X-Vivo 20 medium with 100 ng/ml SCF, 50 ng/ml TPO and 50 ng/ml FLT-3 Ligand in sterile white cell culture treated plates at a cell density of 30 000 cells/ml. HSCs are then treated with various CD117 antibodies or an isotype control antibody at different concentrations and plates are incubated for 5 days. After 5 days a CellTiter-Glo 2.0 assay (Promega) is performed and luminescence is read in a luminometer (e.g. Envision or Phera Star plate readers).

For assay [11], the system named is wild type TF-1 cells. In words: Inhibition of SCF-dependent proliferation, wild type TF-1 cells. The class given is cell-based, human. Conditions: for effect on SCF-dependent proliferation of wild type TF-1 cells: 100 ng/ml SCF, increasing concentrations, 3 days. How it is done: as §1, §3
The test system of assay [12] is CD117. In words: Blocking of SCF-induced CD117 phosphorylation (Tyr719 ELISA), wild type TF-1 cells. The class given is cell-based, human. Conditions: 0.5 ug/mL antibody or 500 nM avapritinib; 100 ng/ml SCF 5 minutes. How it is done:
as §4, §5

Usually Kd stands for the equilibrium constant for the complex coming apart. A high value points to a looser complex. For “E73K: variant of human CD117 (SEQ ID NO: 1) with substitution E73K”, the “SCF-dependent phosphorylation at position Tyr719 of CD117” value in assay [1] is listed as “showed a SCF-dependent phosphorylation”. In [2] (7 concentrations 2000-5 nM, steady state, two individual experiments), the affinity, expressed as Kd, was 1200 nM. Besides, in assay [2] (KD variant vs wild type), the “change of KD compared to wild type CD117” value is 1200 fold. In assay [3], the “engraftment of edited CD34+ human cells in immune-deficient mice” value is given as “engraft essentially as well as unedited cells”. Also, the “binding to Refmab #1 compared to wild type” value in [4] was “strong decrease in binding”. Further, the “Binding of Refmab #1 to TF-1 cells expressing the CD117 variant” value in assay [5] is on record as “completely abolished”. Moreover, in assay [6], the “EC50 Experiment #1” value is 0.00373 µg/mL and the “EC50 Experiment #2” value worked out at 0.00342 µg/mL. For the same molecule, the SCF-dependent proliferation result in assay [7] is on record as “strongly proliferated”.

B1: Refmab #1: anti-CD117 antibody, VH SEQ ID 15, VL SEQ ID 16, human IgG1 Fc silent (AEASS); also tested as Fab (antibody, V domains shown)
VH: QVQLQQPGAELVKPGASVKMSCKASGYTFTSYNMHWVKQTPGQGLEWIGVIYSGNGDTSYNQKFKGKATLTADKSSSTAYMQINSLTSEDSAVYYCARERDTRFGNWGQGTLVTVSA
VL: NIVLTQSPASLAVSLGLRATISCRASESVDIYGNSFMHWYQQKPGQPPKLLIYLASNLESGVPARFSGSGSRTDFTLTIDPVEADDAATYYCQQNNEDPYTFGGGTKLEIK
modifications: human IgG1 Fc silent (AEASS); Refmab #1 VH; Refmab #1 VL
notes: also tested as Fab
With B1, the “effect on SCF-dependent proliferation of TF-1 cells with CD117 variants” value in assay [8] is “not affected”. Also, the “blocking of SCF-induced phosphorylation, E73K variant” value in assay [9] is recorded as “unaffected”. The entries for the “IC50 in SCF-dependent proliferation assay” value in assay [10] and in assay [11] (TF-1 cells) were 0.0623 µg/mL and 0.2760 µg/mL, respectively. The “effect on SCF-dependent proliferation of wild type TF-1 cells” value is reported as “decrease in proliferation” in assay [11] and “pronounced effect” in assay [11] (listed as RefMab #1). In assay [12], the “blocking of SCF-induced phosphorylation, wild type cells” value was “can be blocked”.
